# Assay results from patent publication US20030152536A1, “Cosmetic preparations containing waltheria indica extracts” (priority 2000, published 2003).
# Test system: melanin index of forearm skin
# Assay: In vivo lightening of color on the forearm of 41 volunteers with Asiatic skin color (melanin index D56/D0)
# Design: species or system human
# Details: D0 melanin index before, D56 after treatment
# Experimental: The effectiveness of the preparations according to the invention by comparison with known preparations was tested in vitro by inhibition of the synthesis of melanin in B 16 melanocytes. The concentration of the active principles (in % by weight) in the cell culture medium and the inhibition in %-rel. in relation to the blank value are shown. An in vivo test was also carried out by measuring the lightening of color on the extensor muscle side of the forearm of 41 volunteers with Asiatic skin color. The depigmenting activity D56/D0 is shown, D0 standing for the melanin index before the treatment and D56 for the index after the treatment.
smiles,measurement,setting,value
OC[C@H]1O[C@@H](Oc2ccc(O)cc2)[C@H](O)[C@@H](O)[C@@H]1O [Arbutin],D56/D0,concentration 0.1,54
same,D56/D0,concentration 0.3,30
